Like-named read-outs stand apart in the source and are kept apart here.

Usually IC50 stands for the point on the concentration scale where inhibition reaches its midpoint.

The test system of data set [1] is mouse (MBT2) bladder cancer cells. The data set can be described thus: MTT dye reduction cell viability assay on MBT2 cells. The format is cell-based. As to the method: (§1) The cytotoxic effects of tachpyr on mouse (MBT2) and human (T24) bladder cancer cells were evaluated in vitro, and compared to normal human fibroblasts (MRC-5). MBT2 cells were provided by Dr. L. Lattime (Thomas Jefferson University, Philadelphia, Pa.), while MRC-5 cells were a gift of H. Blau (Standford University, Standford, Calif.). T24 cells were obtained from ATTC (Rockville, Md.). Cells were grown in RPMI (MBT2) or DME medium (T24 and MRC-5) containing 10% fetal bovine serum in a humidified chamber containing 5% CO2. 5×10^3 cells were plated into 96-well tissue culture dishes, and permitted to attach overnight. Test compounds were then added, with six replicate cultures used for each point.
After 72 hours, cell viability was assessed using an MTT dye reduction assay [Mosmann, T., J. Immunol. Meth. 65:55 (1983)]. The MTT assay is widely used to measure drug effects on cell viability. [see Richardson, D., Blood 86:4295 (1995); Brüggerman, S., Cancer Res. 57:2676 (1997); and Silber, R., Blood 84:3440 (1994)]. Specifically, (3-(4,5-dimethylthiazol-2-yl)-2,5-diphenyl tetraxolium bromide was added to the medium, and the formation of a reduced product was assayed by measuring the optical density at 560/650 nm after 3 hours. Color formation was considered proportional to viable cell numbers. IC50 was defined as the concentration required to inhibit viability by 50%, and was calculated using the Multiple Drug-effect Analysis Program (Biosoft).
MBT2 cells were then incubated with 150 μM (dfo) or 25 μM tachpyr for various lengths of time, and survival was then measured using the MTT assay described above. Viability at time 0 was defined as 100%. […] Rather, cytotoxicity was delayed by approximately 24 hours, paralleling the cytotoxic time course of desferioxamine.
The metal complexes of tachpyr were prepared as disclosed in Example 3, and their effects on MBT2 cells were compared to those of tachpyr after 72 hours using the MTT assay referenced in Example 8.
On the technique in general: Tetrazolium assays rely on reduction of a dye to a coloured formazan, in cell work by metabolically active cells.

In data set [2] the test system is tumor cells. Conditions: background statement; cited from earlier work.
For data set [3] the following is noted: Richardson, D., Blood 86:4295 (1995); cited from earlier work.
The subject of another data set is cell culture. The data set can be described thus: Preliminary cell culture experiments comparing toxicity of tachpyr with tachpn. The format is cell-based. The source says: In order to further explore the hypothesis that oxidative dehydrogenation is involved in chelator toxicity, the tach-based chelator with three N-propyleneamino arms (termed tachpn, Scheme 4 as shown in FIG. 3) has been studied. Tachpn is distinguished from tachpyr in having the —C(H)(CH3)(NH2) fragment in place of the pyridine ring. The α-hydrogens of tachpn are sterically hindered, relative to tachpyr, by the methyl group in the β position, so that tachpn may have a lower propensity toward α-hydrogen abstraction. Further, the pseudo-benzylic H^a of tachpyr would also have a potentially greater tendency to be abstracted, as compared to tachpn, on electronic grounds [see March, J., Advanced Organic Chemistry. McGraw-Hill, pp 914 ff) The considerations would imply that tachpn is less able than tachpyr to undergo oxidative dehydrogenation and to reduce Fe(III). Preliminary cell culture experiments were conducted to compare the toxicity of tachpyr with tachpn (FIG. 3).

Data set [4] deals with tumor cells.
In data set [5] the test system is human (T24) bladder cancer cells. The data set can be described thus: MTT dye reduction cell viability assay on T24 cells. It is filed as cell-based. Conditions: cell type T24, 72 hours, read-out: IC50(μM) of Tachpyr. Here is the method:
as §1
(§2) After 72 hours, cell viability was assessed using an MTT dye reduction assay [Mosmann, T., J. Immunol. Meth. 65:55 (1983)]. The MTT assay is widely used to measure drug effects on cell viability. [see Richardson, D., Blood 86:4295 (1995); Brüggerman, S., Cancer Res. 57:2676 (1997); and Silber, R., Blood 84:3440 (1994)]. […]

Data set [6] has as its system normal human fibroblasts (MRC-5). The data set can be described thus: MTT dye reduction cell viability assay on MRC-5 cells. Conditions: cell type MRC-5, 72 hours, read-out: IC50(μM) of Tachpyr. It is filed as cell-based. Here is the method:
as §1, §2

For data set [7], the system named is MBT2 or T24 cultured bladder cancer cells. The data set can be described thus: Cytotoxicity toward cultured bladder tumor cells. The conditions noted are these: cultured human and mouse bladder tumor cells. The format is cell-based. As to the method: as §1, §2
Another data set deals with breast cancer cell lines. The data set can be described thus: Cytotoxicity to breast cancer cell lines. It is filed as cell-based.
The next data set deals with MBT2 cells. The data set can be described thus: Clonogenic assay. Conditions: 72 hours with tachpyr, colonies grown seven days. The format is cell-based, mouse. As to the method: Cell viability was also-assessed using a clonogenic assay, which measures the ability of cells to divide and form visible colonies of about 50 or more cells. Replicate plates were exposed to various concentrations of tachpyr added to the growth medium. Control cells received no tachpyr. At the end of the incubation period, the surviving cells were trypsinized, diluted, and re-plated in growth medium without tachpyr. Colonies were permitted to grow for seven days. The growth medium was then removed, and plates were fixed with 0.5% gluteraldehyde, stained with 1% crystal violet, and then counted.

The next data set concerns ferritin synthesis. The data set can be described thus: Ferritin synthesis (35S labeling, immunoprecipitation, SDS PAGE). Conditions: 20 μM tachpyr, 16 hours. The format is cell-based. Here is the method: Ferritin is a major iron storage protein whose synthesis is dependent upon intracellular concentrations of iron. To examine the role of tachpyr in the chelation of intracellular iron, the influence of tachpyr on ferritin synthesis was examined. Cells were exposed for either 7 or 16 hours to media containing either no additions, 20 μM tachpyr, 150 μM desferioxamine or 200 μM ferric nitrolotriacetate. During the last two hours of incubation, cells were metabolically labeled with S-translabel (ICN) and ferritin visualized by immunoprecipitation and SDS PAGE [Torti, S. et al.,J. Biol. Chem. 263:12638 (1988).]

For the next data set, the system named is RAW 264.7 cells. The data set can be described thus: Apoptosis: DNA fragmentation by agarose gel electrophoresis. The format is cell-based. The conditions noted are these: 25 μM, 0, 6, 12 and 20 hours. The source says:
Apoptosis, or “programmed cell death,” is a process initiated by many anti-cancer agents. Pathways of apoptosis involve complex intracellular changes, including the action of intracellular proteases (caspases), release of cytochrome C, mitochondrial changes, nuclear condensation and fragmentation, and ultimately cell death. A hallmark of apoptotic cell death is the appearance of “DNA ladders”: DNA cleaved at […] regions to generate a series of DNA fragments that can be visualized using agarose gel electrophoresis. In order to determine whether tachpyr triggers apoptotic pathways, DNA was isolated from RAW 264.7 cells that had been treated with 25 μM tachpyr for 0, 6, 12 and 20 hours. DNA was also isolated from cells treated for 7 hours with 50 μM cisplatin or 500 μM etoposide (VP16). Cisplatin and etoposide are DNA damaging agents that are currently used in cancer therapy and are known to induce apoptosis. They served as positive controls. We compared the effects of tachpyr, VP16 and cisplatin on DNA fragmentation using agarose gel electrophoresis. […] Thus, cytotoxic pathways elicited by tachpyr are similar to those evoked by classic anti-cancer agents, and are consistent with its contemplated use as a chemotherapeutic agent.

As for `[Cl-].[Cl-].[Cu+2].c1ccc(CNC2CC(NCc3ccccn3)CC(NCc3ccccn3)C2)nc1` (centres unmarked) [CU(II) complex of tachpyr], the “cytotoxicity (in words)” value in [1] (MBT2 cells, 72 hours, MTT) was “not toxic”.

`[Ca+2].[Cl-].[Cl-].c1ccc(CNC2CC(NCc3ccccn3)CC(NCc3ccccn3)C2)nc1` (centres unmarked) [Ca(II) complex of tachpyr]: the “cytotoxicity (in words)” value in data set [1] (MBT2 cells, 72 hours, MTT) is “toxic”.

Turning to `[Cl-].[Cl-].[Mg+2].c1ccc(CNC2CC(NCc3ccccn3)CC(NCc3ccccn3)C2)nc1` (centres unmarked) [MG(II) complex of tachpyr], the “cytotoxicity (in words)” value in [1] (MBT2 cells, 72 hours, MTT) was “toxic”.

As to `[Mn+2].[O-][Cl+3]([O-])([O-])[O-].[O-][Cl+3]([O-])([O-])[O-].c1ccc(CNC2CC(NCc3ccccn3)CC(NCc3ccccn3)C2)nc1` (centres unmarked) [MN(II) complex of tachpyr], the “cytotoxicity (in words)” value in [1] (MBT2 cells, 72 hours, MTT) is “toxic”.

For the molecule `[O-][Cl+3]([O-])([O-])[O-].[O-][Cl+3]([O-])([O-])[O-].[Zn+2].c1ccc(CNC2CC(NCc3ccccn3)CC(NCc3ccccn3)C2)nc1` (centres unmarked) [Zn(II) complex of tachpyr], in data set [1] (MBT2 cells, 72 hours, MTT), the “cytotoxicity (in words)” value is “not toxic”.

Consider `c1ccc(-c2ccccn2)nc1` [bipy], for which the “cytotoxic effects on tumor cells (in words)” value with tumor cells [2] is reported as “only weak cytotoxic effects”.

`CC(=O)N(O)CCCCCNC(=O)CCC(=O)N(O)CCCCCNC(=O)CCC(=O)N(O)CCCCCN` [desferrioxamine, reference compound]: the “cytotoxicity (in words)” value in data set [1] (MBT2 cells, 72 hours, MTT) was “cytotoxic”. Also, the half-inhibitory concentration (IC50) was 70 µM in data set [1] (Mus musculus, MBT2 cells, 72 hours, MTT, single experiment of FIG. 8, read-out: calculated IC50 from FIG. 8 data); 70 µM in [1] (Mus musculus, MBT2 cells, 72 hours, MTT, tachpyr: average of four independent experiments ± standard error, read-out: IC50); 70 µM in data set [3].

`CC(N)CNC1CC(NCC(C)N)CC(NCC(C)N)C1` (centres unmarked) [tachpn]: the IC50 in the data set on cell culture (preliminary cell culture experiments, cell line not stated) is around 80 µM. In the data set on cell culture (ratio of IC50 values), the “decrease in toxicity relative to tachpyr” value turned out to be 17 fold.

As to `C(=NC1CC(N=Cc2ccccn2)CC(N=Cc2ccccn2)C1)c1ccccn1` (stereo not drawn) [tachpyr-3H2, cis,cis-1,3,5-tris(pyridine-2-carboxaldimino)cyclohexane], in the data set with tumor cells [4], the “cytotoxicity (in words)” value is “no cytotoxicity”.

Turning to `c1ccc(CNC2CC(NCc3ccccn3)CC(NCc3ccccn3)C2)nc1` (centres unmarked) [tachpyr], in data set [1] (MBT2 cells, 25 μM tachpyr, time course, MTT), the delay of cytotoxicity entry is “approximately 24 hours”. For the same molecule, the “cytotoxicity (in words)” value in data set [1] (MBT2 cells, 72 hours, MTT) is reported as “cytotoxic”; in the data set with breast cancer cell lines, “cytotoxic”. Moreover, the IC50 in data set [1] (MBT2 cells, 72 hours, MTT, single experiment of FIG. 8, read-out: calculated IC50 from FIG. 8 data) was 3.6 µM; in [1] (MBT2 cells, 72 hours, MTT, tachpyr: average of four independent experiments ± standard error, read-out: IC50) it was 4.6 ± 2 µM; in [1] (Table I, cell type MBT2, read-out: IC50(μM) of Tachpyr), 2.2 µM; in [5] it was 4.3 µM; in data set [6] it was 30.5 µM. Moreover, in data set [7], the “toxicity (in words)” value is on record as “extremely toxic”. Further, the colony formation entry in the data set on MBT2 cells is on record as “inhibited colony formation”. Further, in the data set on ferritin synthesis, the ferritin synthesis result is listed as “repressed”. Besides, the “DNA fragmentation (DNA ladders)” value in the data set with RAW 264.7 cells is listed as “clearly induced DNA fragmentation”.

Turning to “[Fe(tachpyr)]Cl2 [FE(II) complex of tachpyr]”, the “cytotoxicity (in words)” value in data set [1] (MBT2 cells, 72 hours, MTT) is on record as “not toxic”.

The values are drawn from patent US6589966B1, “Cytotoxic metal chelators and methods for making and using same” (Wake Forest University Health Sciences, priority 1998, dated 2003).
